# Reference: patent US7011826B1, “Control of acidosis” (priority 1999, dated 2006)
# Tests used:
# [1] = test system: Clostridium-like vitulinus (LV R1); assay: Virginiamycin sensitivity test (broth growth); type: cell-based; settings: Basal Medium 10 with glucose (0.5%)
# Experimental: (§1) Two isolates of S. bovis from cattle and sheep (orange pigmented and white), five Clostridium-like vitulinus and three isolates of S. ruminantium were incubated in a branch of basal medium 10 with glucose (0.5%) and virginiamycin (VM) at a concentrations of 0, 2, 4, 6 and 8 μg/ml. The virginiamycin solution (100 μg VM/ml) was prepared using Eskalin Wettable Powder (WP), 400 g/kg VM (Pfizer Animal Health, NSW, Australia). The WP was dissolved in distilled water (previously boiled and bubbled with nitrogen until cooled) and filter-sterilised whilst being gassed with nitrogen. This solution was used immediately after preparation. […] The broth-media was inoculated by 0.2 ml of the different fresh viable cultures and 0.1–0.4 ml of VM solution was added to each tube to provide the required dose. A sensitivity test was also performed when VM was added 3 and 6 h after inoculation, using the same concentrations of VM. Tests for sensitivity to VM were conducted using […] of anaerobic incubation at 39° C.
# [2] = test system: Clostridium-like vitulinus (LV R2); assay: Virginiamycin sensitivity test (broth growth); type: cell-based; settings: Basal Medium 10 with glucose (0.5%)
# Experimental: as §1
# [3] = test system: Clostridium-like vitulinus (LV R3); assay: Virginiamycin sensitivity test (broth growth); type: cell-based; settings: Basal Medium 10 with glucose (0.5%)
# Experimental: as §1
# [4] = test system: Clostridium-like vitulinus (LV R4); assay: Virginiamycin sensitivity test (broth growth); type: cell-based; settings: Basal Medium 10 with glucose (0.5%)
# Experimental: as §1
# [5] = test system: Clostridium-like vitulinus (LV R5); assay: Virginiamycin sensitivity test (broth growth); type: cell-based; settings: Basal Medium 10 with glucose (0.5%)
# Experimental: as §1
# [6] = test system: S. ruminantium (SR R1, SR R2 and SR R3); assay: Virginiamycin sensitivity test (broth growth); type: cell-based; settings: Basal Medium 10 with glucose (0.5%)
# Experimental: as §1
# [7] = test system: Clostridium-like isolates; assay: Virginiamycin sensitivity test, VM added 3 and 6 h after inoculation; type: cell-based, Clostridium-like vitulinus
# Experimental: as §1
# dogs [8] = assay: Virginiamycin dose trial in dogs fed tinned dog food with added raftilose (faecal measurements); type: in vivo; set-up: faecal Dry matter / faecal Total VFA: unit not given here; settings: for faecal pH: raftilose diet; for faecal Consistency score: 5 = firm, normal faeces and 1 = diarrhoea
# Experimental: The main objective of this trial was to investigate various doses of virginiamycin in terms of its effect on faecal consistency and hind gut fermentation.
# Design: There were 4 treatment groups consisting of unmedicated control, and virginiamycin at 3 levels: 0.25, 0.5 and 1 mg/kg body weight. Dogs were acclimatised to a dict based on the tinned ‘No Frills’ dog food for approximately 2 weeks prior to a seven-day treatment period in which fructo-oligosaccharide raftilose was added to the diet at a rate of 3.5 g/kg metabolic body weight. There were five dogs per treatment.
# Measurements were made of faecal pH, dry matter, consistency and chemical assays were conducted to measure VFA, D-lactic acid and L-lactic acid.
# dogs [9] = assay: Faecal characteristics of dog fed dry dog food with virginiamycin; type: in vivo; settings: one dog, virginiamycin 0.5 mg/kg body weight for 7 days
# Experimental: Two dogs were fed a commercial dry dog food for 4 weeks before and then during the experimental period. Virginiamycin (Eskalin 20) was added to the diet of one dog for a period of 7 days prior to faecal sampling to provide 0.5 mg/kg body weight. Samples of faeces were taken for the analysis of pH and lactic acid concentrations at the same time as those taken for isolation of lactic acid producing bacteria.
# [10] = VM 0.25, 0.5 and 1 mg/kg body weight
substance,measurement,setting,value
virginiamycin,MIC level,[1],2 µg/mL
same,VM level the isolate resisted up to,[2],4 µg/mL
same,VM level the isolate resisted up to,[3],4 µg/mL
same,VM level the isolate resisted up to,[4],6 µg/mL
same,MIC level,[5],2 µg/mL
same,highest VM level to which isolates were resistant,[6],8 µg/mL
same,MIC compared with VM added immediately after inoculation,[7]; cultures growing 3 h before addition of VM,higher MIC
same,highest VM level to which isolates were resistant,"[7]; cultures grown 6 h before addition of VM, all Clostridium-like isolates",8 µg/mL
same,faecal D-lactic acid concentration,dogs [8]; VM 0.25 mg/kg body weight,0.2
same,faecal Dry matter,dogs [8]; VM 0.25 mg/kg body weight,22.0
same,faecal L-lactic acid concentration,dogs [8]; VM 0.25 mg/kg body weight,2.2
same,faecal Total VFA,dogs [8]; VM 0.25 mg/kg body weight,80.5
same,faecal pH,dogs [8]; VM 0.25 mg/kg body weight,5.2
same,faecal Consistency score,dogs [8]; VM 0.25 mg/kg,3.6
same,faecal D-lactic acid concentration,dogs [8]; VM 0.5 mg/kg body weight,0.4
same,faecal Dry matter,dogs [8]; VM 0.5 mg/kg body weight,22.5
same,faecal L-lactic acid concentration,dogs [8]; VM 0.5 mg/kg body weight,13.8
same,faecal Total VFA,dogs [8]; VM 0.5 mg/kg body weight,93.7
same,faecal pH,dogs [8]; VM 0.5 mg/kg body weight,4.9
same,faecal Consistency score,dogs [8]; VM 0.5 mg/kg,3.7
same,faecal D-lactic acid concentration,dogs [8]; VM 1.0 mg/kg body weight,0.3
same,faecal Dry matter,dogs [8]; VM 1.0 mg/kg body weight,24.2
same,faecal L-lactic acid concentration,dogs [8]; VM 1.0 mg/kg body weight,11.8
same,faecal Total VFA,dogs [8]; VM 1.0 mg/kg body weight,73.5
same,faecal pH,dogs [8]; VM 1.0 mg/kg body weight,4.9
same,faecal Consistency score,dogs [8]; VM 1.0 mg/kg,3.8
same,effect on L-lactic,dogs [8]; [10],little effect
same,"effect on the pH, faecal consistency, dry matter content and VFA concentrations",dogs [8]; [10],little effect
same,effect on concentration of d-lactic acid,dogs [8]; all levels of inclusion,reduce the concentration of d-lactic acid
same,D(−)Lactate in faeces,dogs [9],0.45 mmol/L
same,L(+)Lactate in faeces,dogs [9],0.34 mmol/L
same,faecal pH,dogs [9],5.34
